Measured values as given in patent US20200404919A1, “USE OF HETEROARYL-TRIAZOLE AND HETEROARYL-TETRAZOLE COMPOUNDS AS PESTICIDES IN PLANT PROTECTION” (Bayer Aktiengesellschaft, priority 2018, published 2020).

What was measured:
Assay type in all cases: in vivo
Aphis gossypii = Aphis gossypii - oral test; conditions: 120 h, read-out: mortality in %
Experimental: Solvent: 100 parts by weight acetone
To produce a suitable preparation of active compound, 1 part by weight of active compound is mixed with the stated amount of solvent, and the concentrate is diluted with water to the desired concentration.
50 μl compound solution is filled in microtiter plates and 150 μl IPL41 insect medium (33%+15% sugar) is added to obtain a total volume of 200 μl per well. Afterwards the plates are sealed with parafilm through which a mixed population of the cotton aphid (Aphis gossypii) can suck on the compound preparation.
(§1) After 5 days mortality in % is determined. 100% means all aphids have been killed and 0% means none of the aphids have been killed.

Spodoptera frugiperda = Spodoptera frugiperda - spray test; conditions: in Zea mays, 168 h, read-out: mortality in %
Experimental: Spodoptera frugiperda—Spray Test
(§2) To produce a suitable preparation of active compound, 1 part by weight of active compound is mixed with the stated amount of solvents and is diluted with water, containing an emulsifier concentration of 1000 ppm, to the desired concentration. Further test concentrations are prepared by dilution with emulsifier containing water.
Maize (Zea mays) leaf sections are sprayed with a preparation of the active ingredient of the desired concentration. Once dry, the leaf sections are infested with fall armyworm larvae (Spodoptera frugiperda).
After 7 days mortality in % is determined. 100% means all caterpillars have been killed and 0% means none of the caterpillars have been killed.

Phaedon cochleariae = Phaedon cochleariae - spray test; conditions: in Brassica rapa, foliar, 168 h, read-out: mortality in %
Experimental: Phaedon cochleariae—Spray Test
as §2
Chinese cabbage (Brassica pekinensis) leaf disks are sprayed with a preparation of the active ingredient of the desired concentration. Once dry, the leaf disks are infested with mustard beetle larvae (Phaedon cochleariae).
After 7 days mortality in % is determined. 100% means all beetle larvae have been killed and 0% means none of the beetle larvae have been killed.

Nezara viridula = Nezara viridula - spray test 1; conditions: in Hordeum vulgare, 96 h, read-out: mortality in %
Experimental: Nezara viridula—Spray Test 1
as §2, with “solvent,” for “solvents”, “and the concentrate” for “and”
Barley plants (Hordeum vulgare) infested with larvae of the southern green stink bug (Nezara viridula) are sprayed with a test solution containing the desired concentration of the active ingredient.
After 4 days mortality in % is determined. 100% means all the stink bugs have been killed; 0% means none of the stink bugs have been killed.

Myzus persicae = Myzus persicae - oral test; conditions: 120 h, read-out: mortality in %
Experimental: To produce a suitable preparation of active compound, 1 part by weight of active compound is mixed with the stated amount of solvent, and the concentrate is diluted with water to the desired concentration. 50 μl compound solution is filled in microtiter plates and 150 μl IPL41 insect medium (33%+15% sugar) is added to obtain a total volume of 200 μl per well. Afterwards the plates are sealed with parafilm through which a mixed population of the green peach aphid (Myzus persicae) can suck on the compound preparation.
as §1

Diabrotica balteata = Diabrotica balteata - spray test; conditions: 168 h, 160 μg/well, germinated wheat seeds, larvae, after 7 days, read-out: efficacy in %
Experimental: Diabrotica balteata—Spray Test
as §2, with “solvent,” for “solvents”, “and the concentrate” for “and”
Soaked wheat seeds (Triticum aestivum) are placed in a multiple well plate filled with agar and some water and are incubated for 1 day to germinate (5 seeds per well). The germinated wheat seeds are sprayed with a test solution containing the desired concentration of the active ingredient. Afterwards each unit is infected with 10-20 larvae of the banded cucumber beetle (Diabrotica balteata).
After 7 days efficacy in % is determined. 100% means all the seedlings have grown up like in the untreated, uninfected control; 0% means none of the seedlings have grown.

Nilaparvata lugens = Nilaparvata lugens - spray test 1; conditions: in Oryza sativa, 96 h, read-out: mortality in %, 500 g/ha, rice plants, after 4 days
Experimental: Nilaparvata lugens—Spray Test 1
as §2
Rice plants (Oryza sativa) are sprayed with a preparation of the active ingredient of the desired concentration and the plants are infested with the brown planthopper (Nilaparvata lugens).
After 4 days mortality in % is determined. 100% means all planthoppers have been killed and 0% means none of the planthoppers have been killed.

Culex quinquefasciatus = test: Culex test (CULXFAS surface treatment & contact assay); conditions: 30 minutes exposure, 24 hours after contact, read-out: efficacy (mortality in percent)
Experimental: Culex Test (CULXFAS Surface Treatment & Contact Assay)
Solvent: Acetone+2000 ppm rapeseed oil methyl ester (RME)
(§3) In order to produce a sufficient, active ingredient containing solution it is necessary to solve the test-compound in an acetone/RME solvent mixture. This solution is pipetted onto a glazed tile and after evaporation of the acetone, adult mosquitoes of the species Culex quinquefasciatus (Brown house mosquito) are placed onto the dried surface. The exposure time is 30 minutes.
(§4) Mortality in percent (%) is determined 24 hours after contact to the treated surface. 100% mortality means that all test-insects are dead, whereas 0% means that not a single insect died.

[1] = tested on: Blattella germanica strain PAULINIA; test: Blattella germanica test (BLTTGE surface treatment & contact assay); conditions: surface concentration 20 mg/m^2, glazed tile, 30 minutes exposure, 24 hours after contact, read-out: efficacy (mortality in percent)
Experimental: Blattella germanica Test (BLTTGE Surface Treatment & Contact Assay)
(§5) Solvent: Aceton+2000 ppm Rapeseed oil methyl ester (RME)
as §3, with “animals” for “mosquitoes”, “Blattella germanica strain PAULINIA” for “Culex quinquefasciatus (Brown house mosquito)”
as §4

[2] = tested on: Aedes aegypti strain MONHEIM; test: Aedes test (AEDSAE surface treatment & contact assay); conditions: 30 minutes exposure, 24 hours after contact, read-out: efficacy (mortality in percent)
Experimental: Aedes Test (AEDSAE Surface Treatment & Contact Assay)
Solvent: Aceton+2000 ppm rapeseed oil methyl ester (RME)
as §3, with “Aedes aegypti strain MONHEIM” for “Culex quinquefasciatus (Brown house mosquito)”
as §4

[3] = tested on: Musca domestica strain WHO-N; test: Musca domestica test (MUSCDO surface treatment & contact assay); conditions: 30 minutes exposure, 24 hours after contact, read-out: efficacy (mortality in percent)
Experimental: Musca domestica Test (MUSCDO Surface Treatment & Contact Assay)
as §5
as §3, with “flies” for “mosquitoes”, “Musca domestica strain WHO-N” for “Culex quinquefasciatus (Brown house mosquito)”
as §4

[4] = surface concentration 4 mg/m^2, glazed tile
[5] = surface concentration 20 mg/m^2, glazed tile

SMILES	mortality at 100 ppm (Aphis gossypii)	mortality at 500 g/ha (Spodoptera frugiperda)	mortality at 500 g/ha (Phaedon cochleariae)	mortality at 500 g/ha (Nezara viridula)	mortality at 20 ppm (Myzus persicae)	pest or weed control at 160 µg/disc, 160 µg/well (Diabrotica balteata)	mortality at 500 g/ha (Nilaparvata lugens)	mortality at 4 mg/m2 (Culex quinquefasciatus; [4])	mortality at 20 mg/m2 (Culex quinquefasciatus; [5])	mortality at 20 mg/m2 [1]	mortality at 4 mg/m2 [2, 4]	mortality at 20 mg/m2 [2, 5]	mortality at 4 mg/m2 [3, 4]	mortality at 20 mg/m2 [3, 5]
CC(c1ncnn1-c1ncccn1)N(CC1CC1)C(=O)c1cc(Br)cc(C(F)(F)F)c1 (centres unmarked) [Compound I-62, 3-bromo-N-(cyclopropylmethyl)-N-[1-(2-pyrimidin-2-yl-1,2,4-triazol-3-yl)ethyl]-5-(trifluoromethyl)benzamide]	100%	100%	100%	90%	100%	100%	90%							
C[C@H](NC(=O)c1cc(C(F)(F)F)cc(C(F)(F)F)c1)c1ncnn1-c1ncccn1 [Compound I-66, N-[(1S)-1-(2-pyrimidin-2-yl-1,2,4-triazol-3-yl)ethyl]-3,5-bis(trifluoromethyl)benzamide]	100%	100%	100%	100%	100%	100%	100%							
Cc1nc(C(C)N(CC2CC2)C(=O)c2cc(Cl)cc(C(F)(F)F)c2)n(-c2ncc(Cl)cn2)n1 (centres unmarked) [Compound I-78, 3-chloro-N-[1-[2-(5-chloropyrimidin-2-yl)-5-methyl-1,2,4-triazol-3-yl]ethyl]-N-(cyclopropylmethyl)-5-(trifluoromethyl)benzamide]	100%	100%	100%	100%	100%	100%	100%							
CC(c1ncnn1-c1ncccn1)N(Cc1ccc(F)cc1)C(=O)c1cc(Cl)cc(C(F)(F)F)c1 (centres unmarked) [Compound I-98]	100%	83%	100%	100%	100%	100%	100%							
CC(c1ncnn1-c1ncccn1)N(Cc1ccccc1)C(=O)c1cc(Cl)cc(C(F)(F)F)c1 (centres unmarked) [Compound I-99]	100%	100%	100%	100%	100%	100%	90%							
CC(c1ncnn1-c1ncccn1)N(C)C(=O)c1cc(Cl)cc(C(F)(F)F)c1 (centres unmarked) [Compound I-100, 3-chloro-N-methyl-N-[1-(2-pyrimidin-2-yl-1,2,4-triazol-3-yl)ethyl]-5-(trifluoromethyl)benzamide]	100%	100%	100%	100%	100%	100%	100%							
CC(c1ncnn1-c1ncccc1F)N(CC1CC1)C(=O)c1cc(Cl)cc(C(F)(F)F)c1 (centres unmarked) [Compound I-106]	100%	100%	100%	100%	100%	100%	100%							
CC(NC(=O)c1cncc(C(F)(F)F)c1)c1ncnn1-c1ncccn1 (centres unmarked) [Compound I-115]	100%	83%	100%	100%	100%	100%	100%							
C[C@H](NC(=O)c1cc(Cl)cc(C(F)(F)F)c1)c1ncnn1-c1ccccn1 [Compound I-117, 3-chloro-N-[(1S)-1-[2-(2-pyridyl)-1,2,4-triazol-3-yl]ethyl]-5-(trifluoromethyl)benzamide]	100%	100%	100%	100%	100%	100%	100%							
C[C@H](NC(=O)c1cc(Cl)cc(C(F)(F)F)c1)c1ncnn1-c1ccc(Cl)cn1 [Compound I-120, 3-chloro-N-[(1S)-1-[2-(5-chloro-2-pyridyl)-1,2,4-triazol-3-yl]ethyl]-5-(trifluoromethyl)benzamide]	100%	100%	100%	100%	100%	100%		80 to 100%	80 to 100%	80 to 100%	80 to 100%	80 to 100%	80 to 100%	80 to 100%
CC(c1ncnn1-c1ncccn1)N(CC(F)F)C(=O)c1cc(Cl)cc(OC(F)(F)F)c1 (centres unmarked) [Compound I-121, 3-chloro-N-(2,2-difluoroethyl)-N-[1-(2-pyrimidin-2-yl-1,2,4-triazol-3-yl)ethyl]-5-(trifluoromethoxy)benzamide]	100%	100%	100%	100%	100%	100%	100%							
CC(c1ncnn1-c1ncccn1)N(CC(F)F)C(=O)c1cccc(SC(F)(F)F)c1 (centres unmarked) [Compound I-122]	100%		100%	100%	100%	100%	100%							
